Reference: ChEMBL document CHEMBL6114968, “Discovery of BW710 as a potent, selective and orally bioavailable fibroblast growth factor receptor 2 (FGFR2) inhibitor” (Eur J Med Chem, 2025)
Values belong to the molecule of their own block, whether it stands above or below them.

How the values were obtained:
BaF3 [1] = test: Antiproliferative activity against mouse BaF3 cells expressing FGFR1 incubated for 72 hrs by CCK-8 assay; format: functional, cell-based; details: BaF3, 72 h
BaF3 [2] = test: Antiproliferative activity against mouse BaF3 cells expressing FGFR2 incubated for 72 hrs by CCK-8 assay; format: functional, cell-based; details: BaF3, 72 h
BaF3 [3] = test: Antiproliferative activity against mouse BaF3 cells incubated for 72 hrs by CCK-8 assay; details: BaF3, 72 h
[4] = Antiproliferative activity against FGFR2 amplified human SNU-16 cells measured after 72 hrs by CCK-8 assay; format: functional, cell-based; details: SNU-16, 72 h
MDA-MB-453 = test: Antiproliferative activity against human MDA-MB-453 cells harboring FGFR4-Y367C measured after 72 hrs by CCK-8 assay; format: functional, cell-based; details: MDA-MB-453, 72 h
[5] = Antiproliferative activity against FGFR2 amplified human KATO III stomach cancer cell line measured after 72 hrs by CCK-8 assay; format: functional, cell-based
[6] = Antiproliferative activity against human RT-112 cells harboring FGFR3-TACC3 measured after 72 hrs by CCK-8 assay; format: functional, cell-based; details: RT-112, 72 h
A204 = test: Antiproliferative activity against FGFR1 amplified human A204 cells measured after 72 hrs by CCK-8 assay; format: functional, cell-based; details: A204, 72 h
[7] = MRT(0 to t) in mouse at 10 mg/kg, po; format: ADME, organism-based; details: in vivo
[8] = Oral bioavailability in mouse at 10 mg/kg; format: ADME, organism-based; details: in vivo
[9] = target: Fibroblast growth factor receptor 2 (Homo sapiens) (UniProt P21802); test: Inhibition of FGFR2 in human SNU-16 cells assessed as decrease in ERK1/2 phosphorylation incubated for 1 hr by Western blot analysis; format: cell-based; details: dose 0.5-100 nM
Fibroblast growth factor receptor 2 (Homo sapiens), sequence (P21802 22-821 limits assumed): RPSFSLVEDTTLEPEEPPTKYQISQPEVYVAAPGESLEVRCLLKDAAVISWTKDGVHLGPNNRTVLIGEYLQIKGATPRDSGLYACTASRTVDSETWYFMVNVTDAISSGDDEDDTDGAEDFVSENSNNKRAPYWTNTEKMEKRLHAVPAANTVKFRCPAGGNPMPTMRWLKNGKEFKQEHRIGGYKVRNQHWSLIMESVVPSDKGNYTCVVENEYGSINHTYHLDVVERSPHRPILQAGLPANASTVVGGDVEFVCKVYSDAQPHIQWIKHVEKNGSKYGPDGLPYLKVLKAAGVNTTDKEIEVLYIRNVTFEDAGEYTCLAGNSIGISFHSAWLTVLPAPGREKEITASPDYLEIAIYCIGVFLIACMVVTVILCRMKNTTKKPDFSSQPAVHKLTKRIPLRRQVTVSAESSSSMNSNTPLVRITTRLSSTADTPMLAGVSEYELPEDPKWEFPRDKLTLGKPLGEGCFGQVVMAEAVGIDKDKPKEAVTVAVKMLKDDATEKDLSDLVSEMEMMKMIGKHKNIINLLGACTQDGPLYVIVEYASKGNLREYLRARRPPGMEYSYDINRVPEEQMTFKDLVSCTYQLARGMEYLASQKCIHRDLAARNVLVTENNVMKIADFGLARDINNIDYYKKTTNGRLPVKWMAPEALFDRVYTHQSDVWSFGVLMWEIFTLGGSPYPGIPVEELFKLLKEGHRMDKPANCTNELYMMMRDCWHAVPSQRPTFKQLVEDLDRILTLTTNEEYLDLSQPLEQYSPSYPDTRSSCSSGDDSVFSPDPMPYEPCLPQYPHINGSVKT

[10] = target: Fibroblast growth factor receptor 2 (Homo sapiens) (UniProt P21802); test: Inhibition of FGFR2 in human SNU-16 cells assessed as decrease in Akt phosphorylation at Ser473 residue incubated for 1 hr by Western blot analysis; format: cell-based; details: dose 0.5-100 nM
[11] = Cmax in mouse at 10 mg/kg, po; format: ADME, organism-based; details: in vivo
[12] = MRT(0 to t) in mouse at 1 mg/kg, iv; format: ADME, organism-based; details: in vivo
[13] = target: Fibroblast growth factor receptor 2 (Homo sapiens) (UniProt P21802); test: Inhibition of FGFR2 (unknown origin) at 1 uM by KINOMEscan analysis relative to control
[14] = Half life in mouse at 1 mg/kg, iv; format: ADME, organism-based; details: in vivo
[15] = Half life in mouse at 10 mg/kg, po; format: ADME, organism-based; details: in vivo
[16] = AUC(0 to t) in mouse at 10 mg/kg, po; format: ADME, organism-based; details: in vivo
[17] = target: Fibroblast growth factor receptor 4 (Homo sapiens) (UniProt P22455); test: Inhibition of FGFR4 (unknown origin) at 1 uM by KINOMEscan analysis relative to control
Fibroblast growth factor receptor 4 (Homo sapiens), sequence (P22455 22-802 limits assumed): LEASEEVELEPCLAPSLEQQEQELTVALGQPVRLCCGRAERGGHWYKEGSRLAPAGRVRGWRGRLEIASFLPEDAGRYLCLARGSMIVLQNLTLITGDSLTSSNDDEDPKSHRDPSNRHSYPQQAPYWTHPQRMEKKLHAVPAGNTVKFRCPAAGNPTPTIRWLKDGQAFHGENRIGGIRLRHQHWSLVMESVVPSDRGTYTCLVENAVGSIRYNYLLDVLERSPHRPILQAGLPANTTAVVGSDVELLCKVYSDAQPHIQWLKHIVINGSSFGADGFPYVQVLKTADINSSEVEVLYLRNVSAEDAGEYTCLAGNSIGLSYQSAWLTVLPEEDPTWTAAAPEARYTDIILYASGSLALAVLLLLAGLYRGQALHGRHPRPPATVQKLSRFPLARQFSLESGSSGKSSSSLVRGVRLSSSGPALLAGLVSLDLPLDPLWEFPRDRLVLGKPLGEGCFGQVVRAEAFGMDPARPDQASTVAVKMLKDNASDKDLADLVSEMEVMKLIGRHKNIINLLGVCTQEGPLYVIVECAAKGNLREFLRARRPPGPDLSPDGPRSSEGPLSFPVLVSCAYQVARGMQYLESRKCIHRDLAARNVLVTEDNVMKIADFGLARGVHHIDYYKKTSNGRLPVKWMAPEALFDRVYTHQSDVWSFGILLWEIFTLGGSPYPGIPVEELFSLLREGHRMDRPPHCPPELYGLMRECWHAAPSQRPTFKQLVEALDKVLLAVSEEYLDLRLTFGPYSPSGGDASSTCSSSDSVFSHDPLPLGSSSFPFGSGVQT

[18] = target: Fibroblast growth factor receptor 2 (Homo sapiens) (UniProt P21802); test: Inhibition of FGFR2 in human SNU-16 cells assessed as decrease in FRS2-alpha phosphorylation at Tyr436 residue incubated for 1 hr by Western blot analysis; format: cell-based; details: dose 0.5-100 nM
[19] = target: Fibroblast growth factor receptor 2 (Homo sapiens) (UniProt P21802); test: Inhibition of FGFR2 phosphorylation in human SNU-16 cells incubated for 1 hr by Western blot analysis; format: cell-based; details: dose 0.5-100 nM
[20] = AUC(0 to t) in mouse at 1 mg/kg, iv; format: ADME, organism-based; details: in vivo
[21] = target: Fibroblast growth factor receptor 1 (Homo sapiens) (UniProt P11362); test: Inhibition of FGFR1 (unknown origin) at 1 uM by KINOMEscan analysis relative to control
Fibroblast growth factor receptor 1 (Homo sapiens), sequence (P11362 22-822 limits assumed): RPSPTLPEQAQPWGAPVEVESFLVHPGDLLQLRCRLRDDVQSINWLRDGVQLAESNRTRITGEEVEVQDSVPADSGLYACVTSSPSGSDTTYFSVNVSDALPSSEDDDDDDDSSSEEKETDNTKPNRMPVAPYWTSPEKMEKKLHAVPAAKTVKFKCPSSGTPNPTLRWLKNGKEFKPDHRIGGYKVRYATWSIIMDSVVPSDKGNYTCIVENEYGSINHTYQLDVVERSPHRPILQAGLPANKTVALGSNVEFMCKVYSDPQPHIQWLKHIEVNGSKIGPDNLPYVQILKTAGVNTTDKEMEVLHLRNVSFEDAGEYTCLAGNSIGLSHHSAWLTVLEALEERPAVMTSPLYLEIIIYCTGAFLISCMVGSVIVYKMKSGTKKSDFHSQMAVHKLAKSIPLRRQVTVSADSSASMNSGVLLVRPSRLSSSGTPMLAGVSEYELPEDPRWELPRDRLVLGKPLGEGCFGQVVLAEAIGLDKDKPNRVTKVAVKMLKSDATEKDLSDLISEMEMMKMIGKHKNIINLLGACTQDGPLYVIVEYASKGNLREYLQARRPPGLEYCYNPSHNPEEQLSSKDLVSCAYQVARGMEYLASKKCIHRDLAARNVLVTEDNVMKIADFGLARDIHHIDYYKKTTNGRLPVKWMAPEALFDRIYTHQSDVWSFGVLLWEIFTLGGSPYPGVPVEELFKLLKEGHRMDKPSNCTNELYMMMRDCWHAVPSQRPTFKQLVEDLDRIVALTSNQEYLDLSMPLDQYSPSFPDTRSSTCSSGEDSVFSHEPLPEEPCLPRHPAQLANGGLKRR

[22] = target: Fibroblast growth factor receptor 3 (Homo sapiens) (UniProt P22607); test: Inhibition of FGFR3 (unknown origin) at 1 uM by KINOMEscan analysis relative to control
Fibroblast growth factor receptor 3 (Homo sapiens), sequence (P22607 23-806 limits assumed): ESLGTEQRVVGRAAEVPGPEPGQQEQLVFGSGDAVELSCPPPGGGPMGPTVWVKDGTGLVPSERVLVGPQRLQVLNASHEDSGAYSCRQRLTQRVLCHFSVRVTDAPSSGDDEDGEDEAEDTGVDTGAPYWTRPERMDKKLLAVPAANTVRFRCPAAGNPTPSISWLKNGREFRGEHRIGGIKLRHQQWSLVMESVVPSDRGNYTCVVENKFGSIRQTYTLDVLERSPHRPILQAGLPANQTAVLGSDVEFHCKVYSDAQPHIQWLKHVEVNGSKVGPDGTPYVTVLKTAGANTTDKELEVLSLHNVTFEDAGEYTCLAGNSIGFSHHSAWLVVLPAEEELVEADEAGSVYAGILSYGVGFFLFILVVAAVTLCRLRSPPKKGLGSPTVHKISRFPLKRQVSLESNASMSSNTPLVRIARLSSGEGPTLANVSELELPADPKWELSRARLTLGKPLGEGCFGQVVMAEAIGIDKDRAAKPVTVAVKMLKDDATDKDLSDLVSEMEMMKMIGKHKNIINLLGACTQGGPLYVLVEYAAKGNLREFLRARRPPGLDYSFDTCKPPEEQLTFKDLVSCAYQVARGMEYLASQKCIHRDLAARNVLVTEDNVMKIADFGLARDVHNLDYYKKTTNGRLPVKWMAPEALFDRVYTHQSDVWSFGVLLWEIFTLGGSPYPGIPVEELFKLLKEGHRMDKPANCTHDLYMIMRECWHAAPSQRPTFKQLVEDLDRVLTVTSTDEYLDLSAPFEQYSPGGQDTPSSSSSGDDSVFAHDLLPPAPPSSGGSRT

[23] = Cmax in mouse at 1 mg/kg, iv; format: ADME, organism-based; details: in vivo
[24] = Clearance in mouse at 1 mg/kg, iv; format: ADME, organism-based; details: in vivo

IC50 (BaF3 [1]): > 1000 nM | IC50 (BaF3 [2]): 153 nM | IC50 (BaF3 [3]): > 1000 nM
Structure (SMILES): C=CC(=O)Nc1ccc(-c2c(-c3ccc(S(C)(=O)=NCC)cc3)c3c(N)ncnc3n2C)cc1 (stereo unspecified)

IC50 (BaF3 [1]): > 1000 nM | IC50 (BaF3 [2]): 320 nM | IC50 (BaF3 [3]): > 1000 nM
Structure (SMILES): C=CC(=O)Nc1ccc(-c2c(-c3ccc(S(=N)(=O)CC)cc3)c3c(N)ncnc3n2C)cc1 (stereo unspecified)

IC50 (BaF3 [1]): 336 nM | IC50 (BaF3 [2]): 3.7 nM | IC50 (BaF3 [3]): > 1000 nM
Structure (SMILES): C=CC(=O)Nc1ccc(-c2c(-c3ccc(S(=N)(=O)C4CCCCCC4)cc3)c3c(N)ncnc3n2C)cc1 (stereo unspecified)

IC50 (BaF3 [1]): 787 nM | IC50 (BaF3 [2]): 8.9 nM | IC50 (BaF3 [3]): > 1000 nM
Structure (SMILES): C=CC(=O)Nc1ccc(-c2c(-c3ccc(S(=N)(=O)C4CCCCC4)cc3)c3c(N)ncnc3n2C)cc1 (stereo unspecified)

IC50 (BaF3 [1]): > 1000 nM | IC50 (BaF3 [2]): 106 nM | IC50 (BaF3 [3]): > 1000 nM
Structure (SMILES): C=C(C)C(=O)Nc1ccc(-c2c(-c3ccc(S4(=O)=NCCCCC4)cc3)c3c(N)ncnc3n2C)cc1F (stereo unspecified)

IC50 (BaF3 [1]): > 1000 nM | IC50 (BaF3 [2]): 105 nM | IC50 (BaF3 [3]): > 1000 nM
Structure (SMILES): C=C(C)C(=O)Nc1ccc(-c2c(-c3ccc(S4(=O)=NCCCCC4)c(F)c3)c3c(N)ncnc3n2C)cc1 (stereo unspecified)

IC50 (MDA-MB-453): 150 nM | IC50 (BaF3 [1]): 19.8 nM | IC50 (BaF3 [2]): 2 nM | IC50 (BaF3 [3]): > 1000 nM
Structure (SMILES): CCN1C(=O)N(c2c(F)c(OC)cc(OC)c2F)Cc2cnc3[nH]c(CN4CCOCC4)cc3c21 [PEMIGATINIB]
IC50 [4]: 1.1 nM | IC50 [5]: 1.8 nM | IC50 [6]: 10.9 nM | IC50 (A204): 29.2 nM

IC50 (BaF3 [1]): > 1000 nM | IC50 (BaF3 [2]): 61.9 nM | IC50 (BaF3 [3]): > 1000 nM
Structure (SMILES): C=CC(=O)Nc1ccc(-c2c(-c3ccc(S(=N)(=O)C4CC4)cc3)c3c(N)ncnc3n2C)cc1 (stereo unspecified)

IC50 (BaF3 [1]): > 1000 nM | IC50 (BaF3 [2]): 14.6 nM | IC50 (BaF3 [3]): > 1000 nM
Structure (SMILES): C=C(C)C(=O)Nc1ccc(-c2c(-c3ccc(S4(=O)=NCCCCC4)cc3)c3c(N)ncnc3n2C)cc1 (stereo unspecified)

MRT last [7]: 87.6 min | bioavailability [8]: 29% | inhibition [9]: Dose-dependent-effect | inhibition [10]: Dose-dependent-effect | Cmax [11]: 2910 ng/mL | IC50 (MDA-MB-453): 2850 nM | MRT last [12]: 28.8 min | inhibition [13]: 101% | IC50 (BaF3 [1]): > 1000 nM | IC50 (BaF3 [2]): 2.8 nM | half-life [14]: 52.2 min | half-life [15]: 64.8 min | AUC(0-t) [16]: 3650 ng·h/mL | inhibition [17]: 5.85% | inhibition [18]: Dose-dependent-effect | inhibition [19]: Dose-dependent-effect | AUC(0-t) [20]: 1270 ng·h/mL | IC50 (BaF3 [3]): > 1000 nM | inhibition [21]: 14.7% | inhibition [22]: 13.7% | Cmax [23]: 4700 ng/mL | clearance [24]: 13.2 mL/min/kg
Structure (SMILES): C=C(C)C(=O)Nc1ccc(-c2c(-c3ccc(S4(=O)=NCCCCC4)cc3)c3c(N)ncnc3n2C)c(F)c1 (stereo unspecified)
IC50 [4]: 6.7 nM | IC50 [5]: 12.6 nM | IC50 [6]: 782 nM | IC50 (A204): 2380 nM

IC50 (BaF3 [1]): > 1000 nM | IC50 (BaF3 [2]): 12.3 nM | IC50 (BaF3 [3]): > 1000 nM
Structure (SMILES): C=CC(=O)Nc1ccc(-c2c(-c3ccc(S(=N)(=O)CC(C)C)cc3)c3c(N)ncnc3n2C)cc1 (stereo unspecified)

IC50 (BaF3 [1]): > 1000 nM | IC50 (BaF3 [2]): 101 nM | IC50 (BaF3 [3]): > 1000 nM
Structure (SMILES): C=CC(=O)Nc1ccc(-c2c(-c3ccc(S(=O)(CC)=NC)cc3)c3c(N)ncnc3n2C)cc1 (stereo unspecified)

IC50 (BaF3 [1]): 176 nM | IC50 (BaF3 [2]): 1.5 nM | IC50 (BaF3 [3]): > 1000 nM
Structure (SMILES): C=CC(=O)Nc1ccc(-c2c(-c3ccc(S4(=O)=NCCCCC45CCC5)cc3)c3c(N)ncnc3n2C)cc1 (stereo unspecified)

IC50 (BaF3 [1]): 429 nM | IC50 (BaF3 [2]): 101 nM | IC50 (BaF3 [3]): > 1000 nM
Structure (SMILES): C=CC(=O)Nc1ccc(-c2c(-c3ccc(S(C)(=O)=Nc4ccccc4)cc3)c3c(N)ncnc3n2C)cc1 (stereo unspecified)

IC50 (BaF3 [1]): 885 nM | IC50 (BaF3 [2]): 6.6 nM | IC50 (BaF3 [3]): > 1000 nM
Structure (SMILES): C=CC(=O)Nc1ccc(-c2c(-c3ccc(S(=N)(=O)C4CCCC4)cc3)c3c(N)ncnc3n2C)cc1 (stereo unspecified)

IC50 (BaF3 [1]): > 1000 nM | IC50 (BaF3 [2]): 45.8 nM | IC50 (BaF3 [3]): > 1000 nM
Structure (SMILES): C=CC(=O)Nc1ccc(-c2c(-c3ccc(S(=N)(=O)C4CCC4)cc3)c3c(N)ncnc3n2C)cc1 (stereo unspecified)
